biological target: GLP-1 Receptor (Homo sapiens, UniProt P43220); experiment: GLP-1R agonist cAMP stimulation assay (HEK293/GLP1R/CRE-LUC cells, cAMP dynamic 2 Kit); assay type: cell-based; conditions: HEK293/CRE-Luc cell line stably expressing the GLP-1 Receptor, 30 min at 37° C.
Method: Activation of GLP-1 receptor is known to stimulate cyclic AMP (cAMP) production in cells which indicates primary coupling to the Gαs subunit of the G protein heterotrimeric complex. […] To optimize functional activity directed toward Gαs coupling, a HEK293/CRE-Luc cell line developed by HDB stably expressing the GLP-1 Receptor was used. 200×concentration of compound working solutions were prepared (Agilent Technologies Bravo) with 1/2 log serial dilution in 384-well Echo LDV plate (Labcyte, Cat #LP-0200). 50 nL/well 200× concentration of compound working solutions were moved to 384-well white low volume plate (Greiner,Cat #784075) using Labcyte ECHO550. 1×10^5 cells/mL HEK293/GLP1R/CRE-LUC(HD Biosciences) cell suspensions prepared with assay buffer[DPBS containing 0.5 mM IBMX(Sigma, Cat #15879) and 0.1% BSA (GENVIEW, Cat #FA016-100 g)], 10 uL cell suspensions were added to each well of previous generated assay plate which already contains 50 nl compound at 200×concentration using ThermoFisher Multidrop Combi (1000 cells/well). Seal the plate and incubate at 37° C. with 5% CO2 for 30 min. After incubation the cAMP assay signal was generated using cAMP dynamic 2 Kit (Cisbio). 5 μL cAMP-d2 working solution was added to each well, followed with 5 μL Anti-cAMP antibody-cryptate working solution added to each well using ThermoFisher Multidrop Combi. Incubate at room temperature for 1 hour protected from light.

GLP-1 Receptor, sequence (P43220 24-463, species assumed): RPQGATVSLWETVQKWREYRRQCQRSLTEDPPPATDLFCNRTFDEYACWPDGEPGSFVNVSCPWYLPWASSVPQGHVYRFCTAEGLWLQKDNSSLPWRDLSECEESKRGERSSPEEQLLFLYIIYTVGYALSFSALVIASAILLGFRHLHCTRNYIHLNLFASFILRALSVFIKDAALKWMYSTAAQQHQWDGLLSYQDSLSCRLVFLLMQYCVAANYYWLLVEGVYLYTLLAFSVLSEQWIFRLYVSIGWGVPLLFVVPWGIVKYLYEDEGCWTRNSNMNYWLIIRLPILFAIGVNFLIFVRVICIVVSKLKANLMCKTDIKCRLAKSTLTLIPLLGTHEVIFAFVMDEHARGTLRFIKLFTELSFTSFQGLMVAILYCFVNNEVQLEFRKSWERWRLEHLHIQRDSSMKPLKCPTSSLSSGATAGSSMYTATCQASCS

EC50 | SMILES
0.076 nM | C[C@H]1CN(c2ccc(F)c(OCc3ccc(C#N)cc3F)c2)CCN1Cc1nc2cc(-c3nnc(C(F)(F)F)[nH]3)ncc2n1C[C@@H]1CCO1 [Compound 506a, 3-fluoro-4-({2-fluoro-5-[(3S)-3-methyl-4-[(3-{[(2S)-oxetan-2-yl]methyl}-6-[5-(trifluoromethyl)-4H-1,2,4-triazol-3-yl]-3H-imidazo[4,5-c]pyridin-2-yl)methyl]piperazin-1-yl]phenoxy}methyl)benzonitrile]
0.51 nM | N#Cc1ccc(COc2cc(C3CCN(Cc4nc5cc(-c6nnc(C(F)(F)F)[nH]6)nnc5n4C[C@@H]4CCO4)CC3)ccc2F)c(F)c1 [Compound 521a, 3-fluoro-4-[(2-fluoro-5-{1-[(7-{[(2S)-oxetan-2-yl]methyl}-3-[5-(trifluoromethyl)-4H-1,2,4-triazol-3-yl]-7H-imidazo[4,5-c]pyridazin-6-yl)methyl]piperidin-4-yl}phenoxy)methyl]benzonitrile]
0.14 nM | C[C@H]1CN(c2ncc(F)c(OCc3ccc(Cl)cc3F)n2)CCN1Cc1nc2cc(-c3nnc(C(F)(F)F)[nH]3)nnc2n1C[C@@H]1CCO1 [Compound 512a, 4-[(4-chloro-2-fluorophenyl)methoxy]-5-fluoro-2-[(3S)-3-methyl-4-[(7-{[(2S)-oxetan-2-yl]methyl}-3-[5-(trifluoromethyl)-4H-1,2,4-triazol-3-yl]-7H-imidazo[4,5-c]pyridazin-6-yl)methyl]piperazin-1-yl]pyrimidine]

Continued, molecule first:

SMILES | EC50
C[C@]1(c2ccc(Cl)cc2F)Oc2cccc(C3CCN(Cc4nc5cc(C(=O)O)nnc5n4C[C@@H]4CCO4)CC3)c2O1 [Compound 431a, 6-({4-[(2S)-2-(4-chloro-2-fluorophenyl)-2-methyl-2H-1,3-benzodioxol-4-yl]piperidin-1-yl}methyl)-7-{[(2S)-oxetan-2-yl]methyl}-7H-imidazo[4,5-c]pyridazine-3-carboxylic acid] | 0.11 nM
FC(F)(F)c1nnc(-c2cnc3c(c2)nc(CN2CCC(c4cccc5c4OC[C@@H](c4ccc(Cl)cc4)O5)CC2)n3C[C@@H]2CCO2)[nH]1 [Compound 408a, 4-[(2R)-2-(4-chlorophenyl)-2,3-dihydro-1,4-benzodioxin-5-yl]-1-[(3-{[(2S)-oxetan-2-yl]methyl}-6-[5-(trifluoromethyl)-4H-1,2,4-triazol-3-yl]-3H-imidazo[4,5-b]pyridin-2-yl)methyl]piperidine] | 0.28 nM
COc1ccc(C(=O)Nc2ccc3c(c2)nc(CN2CCC(c4cccc(OCc5ccc(Cl)cc5F)n4)CC2)n3C[C@@H]2CCO2)cn1 [Compound 175a, N-{2-[(4-{6-[(4-chloro-2-fluorophenyl)methoxy]pyridin-2-yl}piperidin-1-yl)methyl]-1-{[(2S)-oxetan-2-yl]methyl}-1H-1,3-benzodiazol-5-yl}-6-methoxypyridine-3-carboxamide] | 1.5 nM
Cc1cc(C(=O)Nc2ccc3c(c2)nc(CN2CCC(c4cccc(OCc5ccc(Cl)cc5F)n4)CC2)n3C[C@@H]2CCO2)nn1C [Compound 187a, N-{2-[(4-{6-[(4-chloro-2-fluorophenyl)methoxy]pyridin-2-yl}piperidin-1-yl)methyl]-1-{[(2S)-oxetan-2-yl]methyl}-1H-1,3-benzodiazol-5-yl}-1,5-dimethyl-1H-pyrazole-3-carboxamide] | 0.88 nM
COC(=O)Nc1ccc2c(c1)nc(CN1CCC(c3cccc(OCc4ccc(Cl)cc4F)n3)CC1)n2C[C@@H]1CCO1 [Compound 146a, methyl N-{2-[(4-{6-[(4-chloro-2-fluorophenyl)methoxy]pyridin-2-yl}piperidin-1-yl)methyl]-1-{[(2S)-oxetan-2-yl]methyl}-1H-1,3-benzodiazol-5-yl}carbamate] | 0.49 nM
Cc1nnc(-c2cc3nc(CN4CCC(c5cccc6c5O[C@@](C)(c5ccc(Cl)cc5F)O6)CC4)n(C[C@@H]4CCO4)c3cn2)[nH]1 [Compound 289a, 4-[(2S)-2-(4-chloro-2-fluorophenyl)-2-methyl-2H-1,3-benzodioxol-4-yl]-1-{[6-(5-methyl-4H-1,2,4-triazol-3-yl)-3-{[(2S)-oxetan-2-yl]methyl}-3H-imidazo[4,5-c]pyridin-2-yl]methyl}piperidine] | 0.0051 nM

Source: patent US20230391760A1, “HETEROCYCLIC GLP-1 AGONISTS” (Gasherbrum Bio, Inc., priority 2020, published 2023)
